Test results reported in US20200071326A1, “TAM KINASE INHIBITORS” (Syros Pharmaceuticals, Inc., priority 2017, published 2020).
Where a name gives a salt, the structure may show the parent alone.

What was measured:
[1] = molecular target: T1, FLT3 (Homo sapiens, UniProt P36888); test: IMAP fluorescence polarization kinase assay, FLT3; type: biochemical; conditions: ATP 2.74 μM, enzyme 2.5 nM, 240 minutes, read-out: FLT3 inhibitory constant (Ki)
T1 sequence (P36888 27-993): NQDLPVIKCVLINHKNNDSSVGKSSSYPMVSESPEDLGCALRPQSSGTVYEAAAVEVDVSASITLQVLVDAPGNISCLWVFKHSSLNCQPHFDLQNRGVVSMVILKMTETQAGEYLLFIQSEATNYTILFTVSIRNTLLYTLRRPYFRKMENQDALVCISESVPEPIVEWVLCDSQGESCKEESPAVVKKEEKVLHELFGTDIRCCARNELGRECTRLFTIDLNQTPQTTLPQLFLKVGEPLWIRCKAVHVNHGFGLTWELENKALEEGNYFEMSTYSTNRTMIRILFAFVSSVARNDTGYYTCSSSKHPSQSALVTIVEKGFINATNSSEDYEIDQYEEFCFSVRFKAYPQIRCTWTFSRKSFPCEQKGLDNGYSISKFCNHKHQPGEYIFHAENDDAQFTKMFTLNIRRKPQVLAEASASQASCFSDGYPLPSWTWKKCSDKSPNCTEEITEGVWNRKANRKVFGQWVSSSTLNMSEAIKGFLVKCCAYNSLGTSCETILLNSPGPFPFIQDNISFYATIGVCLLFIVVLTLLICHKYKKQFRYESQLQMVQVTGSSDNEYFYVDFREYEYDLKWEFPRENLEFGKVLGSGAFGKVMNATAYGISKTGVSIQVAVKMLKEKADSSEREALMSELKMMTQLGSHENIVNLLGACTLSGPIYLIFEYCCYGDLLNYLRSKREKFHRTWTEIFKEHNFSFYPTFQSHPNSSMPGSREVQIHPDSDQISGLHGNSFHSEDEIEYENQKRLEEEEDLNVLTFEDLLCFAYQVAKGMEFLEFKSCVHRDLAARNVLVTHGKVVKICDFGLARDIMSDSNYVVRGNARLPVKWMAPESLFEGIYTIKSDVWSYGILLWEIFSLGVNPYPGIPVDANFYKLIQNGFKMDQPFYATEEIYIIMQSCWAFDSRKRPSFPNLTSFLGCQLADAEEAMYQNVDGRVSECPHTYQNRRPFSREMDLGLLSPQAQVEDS
Description: (§1) Activities of compounds against each of TYRO3, AXL, and MERTK as well as against FLT3, were determined using an immobilized metal ion affinity-based fluorescence polarization (“IMAP”) assay. A fluorescently-labeled substrate peptide was phosphorylated in the kinase reaction, after which a binding solution containing large trivalent metal-based nanoparticles was added and the phosphorylated substrate binds to these beads. This reduces the rotational speed of the substrate which is then detected using fluorescence polarization as a read-out.
(§2) The substrates used for each enzyme are as follows: AXL: 5F1-KKKKEEIYFFFG-NH2(SEQ ID NO:1); FLT3: 5F1-KKKKEEIYFFF-NH2 (SEQ ID NO:2); MERTK: 5F1-EFPIYDFLPAKKK-NH2 (SEQ ID NO:3); and TYRO3: 5F1-EFPIYDFLPAKKK-NH2 (SEQ ID NO:4).
(§3) This assay was performed in a 384-well, polystyrene microplate in a final volume of 8 μl. Substrate (final concentration=400 nM), ATP (final concentrations=24.7μM for AXL; 2.74 μM for FLT3; 2.69 μM for MERTK; and 54.0 μM for TYRO3), compounds and enzyme (final concentrations=2.5 nM for AXL, FLT3 and TYRO3; 1.5 nM for MERTK) were pipetted in this order into the appropriate reaction buffer (AXL: 50 mM HEPES, pH 8.0, 1 mM DTT, 10 mM MgCl2, 0.01% BRU35, 0.01% Triton X-100; FLT3: 50 mM HEPES, pH 8.0, 1 mM DTT, 10 mM MgCl2, 0.01% Triton X-100, 0.01% NP40; MERTK/TYRO3: 50 mM HEPES, pH 8.0, 1 mM DTT, 10 mM MgCl2, 0.01% Triton X-100) and incubated at room temperature for varying times (AXL, FLT3 and MERTK: 240 minutes; TYRO3: 60 minutes). IMAP binding solution was then dispensed, the plate incubated for 60 minutes at room temperature and the fluorescence polarization measured. Data were analyzed using XLfit.

[2] = molecular target: T2, AXL (Homo sapiens, UniProt P30530); test: IMAP fluorescence polarization kinase assay, AXL; type: biochemical; conditions: ATP 24.7 μM, enzyme 2.5 nM, 240 minutes, read-out: AXL inhibitory constant (Ki)
T2 sequence (P30530 26-894): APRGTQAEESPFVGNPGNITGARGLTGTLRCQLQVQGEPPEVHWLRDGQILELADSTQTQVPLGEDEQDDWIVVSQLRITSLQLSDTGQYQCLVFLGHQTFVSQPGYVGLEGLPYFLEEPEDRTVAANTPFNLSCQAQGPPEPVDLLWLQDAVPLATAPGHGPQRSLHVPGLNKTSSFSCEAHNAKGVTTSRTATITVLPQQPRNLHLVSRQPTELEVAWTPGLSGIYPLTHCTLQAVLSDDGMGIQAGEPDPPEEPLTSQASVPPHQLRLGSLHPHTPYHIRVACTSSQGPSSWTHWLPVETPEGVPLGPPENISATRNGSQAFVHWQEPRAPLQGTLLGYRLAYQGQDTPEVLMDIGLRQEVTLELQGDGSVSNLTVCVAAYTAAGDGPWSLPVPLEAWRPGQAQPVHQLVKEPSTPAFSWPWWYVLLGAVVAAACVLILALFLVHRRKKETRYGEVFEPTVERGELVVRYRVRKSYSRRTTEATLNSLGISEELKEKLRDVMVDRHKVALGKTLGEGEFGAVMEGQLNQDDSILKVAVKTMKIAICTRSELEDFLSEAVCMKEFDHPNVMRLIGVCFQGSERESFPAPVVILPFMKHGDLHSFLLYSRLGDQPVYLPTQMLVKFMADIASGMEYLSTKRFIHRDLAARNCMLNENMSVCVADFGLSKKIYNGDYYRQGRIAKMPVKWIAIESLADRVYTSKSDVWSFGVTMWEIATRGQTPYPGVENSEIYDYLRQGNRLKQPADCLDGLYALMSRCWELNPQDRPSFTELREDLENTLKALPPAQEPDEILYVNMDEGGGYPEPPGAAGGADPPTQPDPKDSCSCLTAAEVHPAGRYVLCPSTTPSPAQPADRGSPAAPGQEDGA
Description: as §1, §2, §3

For `CCCc1cc2c(N[C@H]3CC[C@H](N)CC3)c(C(=O)Nc3ccc(F)cc3)cnc2[nH]1` [Compound 100, 4-(((1r,4r)-4-aminocyclohexyl)amino)-N-(4-fluorophenyl)-2-propyl-1H-pyrrolo [2,3-b]pyridine-5-carboxamide hydrochloride], the Ki [1] was < 100 nM and the Ki [2] was 1000 to 10000 nM.
With `CCCc1cc2c(N[C@H]3CC[C@H](O)CC3)c(C(=O)Nc3ccc(F)cc3)cnc2[nH]1` [Compound 101] the Ki [1] was 100 to 1000 nM and the Ki [2] was > 10000 nM.
For `CCCc1cc2c(N[C@H]3CC[C@H](O)CC3)c(C(=O)NCc3ccc(-n4ccnc4)cc3)cnc2[nH]1` [Compound 102], the Ki [1] was < 100 nM and the Ki [2] was 100 to 1000 nM.
`Cc1cc2c(N[C@H]3CC[C@H](N)CC3)c(C(=O)Nc3ccc(F)cc3)cnc2[nH]1` [Compound 103] was tested, and the Ki [1] was < 100 nM and the Ki [2] was 100 to 1000 nM.
A Ki [1] of 100 to 1000 nM and a Ki [2] of 1000 to 10000 nM were found for `CCCc1cc2c(N[C@H]3CC[C@H](O)CC3)c(C(=O)NC3CCN(c4ncccn4)CC3)cnc2[nH]1` [Compound 104] in this work.
`CCCc1cc2c(N[C@H]3CC[C@H](O)CC3)c(-c3ccc(CN4CCOCC4)cn3)cnc2[nH]1` [Compound 105] was tested, and the Ki [1] was < 100 nM and the Ki [2] was 100 to 1000 nM.
With `CCCc1cc2c(N[C@H]3CC[C@H](O)CC3)c(-c3ccc(CN4CCOCC4)cc3)cnc2[nH]1` [Compound 106, (1r,4r)-4-((5-(4-(morpholinomethyl)phenyl)-2-propyl-1H-pyrrolo[2,3-b]pyridin-4-yl)amino)cyclohexanol hydrochloride] the Ki [1] was 100 to 1000 nM and the Ki [2] was > 10000 nM.
A Ki [1] of 100 to 1000 nM and a Ki [2] of 1000 to 10000 nM were found for `CCCc1cc2c(N[C@H]3CC[C@H](O)CC3)c(-c3cnn(CCN(C)C)c3)cnc2[nH]1` [Compound 107] in this work.
A Ki [1] of 100 to 1000 nM and a Ki [2] of 1000 to 10000 nM were found for `CCCc1cc2c(N[C@H]3CC[C@H](N)CC3)c(-c3cnn(C)c3)cnc2[nH]1` [Compound 108, (1r,4r)-N1-(5-(1-methyl-1H-pyrazol-4-yl)-2-propyl-1H-pyrrolo[2,3-b]pyridine-4-yl)cyclohexane-1,4-diamine hydrochloride] in this work.
`CCCc1cc2c(N[C@H]3CC[C@H](O)CC3)c(-c3ccc(CNCC45C[C@H]6C[C@@H](C4)C[C@@H](C5)C6)cn3)cnc2[nH]1` [Compound 109] was tested, and the Ki [1] was < 100 nM and the Ki [2] was 100 to 1000 nM.
A Ki [1] of 1000 to 10000 nM and a Ki [2] of 1000 to 10000 nM were found for `N[C@H]1CC[C@H](Nc2c(C(=O)NCc3ccc(-n4ccnc4)cc3)cnc3[nH]c(-c4ccccc4)cc23)CC1` [Compound 110] in this work.
`CCCc1cc2c(N[C@H]3CC[C@H](N)CC3)c(-c3cc(NC)ncn3)cnc2[nH]1` [Compound 111, (1r,4r)-N^1-(5-(6-(methylamino)pyrimidin-4-yl)-2-propyl-1H-pyrrolo[2,3-b]pyridine-4-yl)cyclohexane-1,4-diamine hydrochloride] was tested, and the Ki [1] was < 100 nM and the Ki [2] was 100 to 1000 nM.
With `CCCc1cc2c(N[C@H]3CC[C@H](N)CC3)c(-c3cc(NC(C)C)ncn3)cnc2[nH]1` [Compound 112] the Ki [1] was < 100 nM and the Ki [2] was 100 to 1000 nM.
`CCCc1cc2c(N[C@H]3CC[C@H](N)CC3)c(-c3ccccn3)cnc2[nH]1` [Compound 113] was tested, and the Ki [1] was < 100 nM and the Ki [2] was 1000 to 10000 nM.
`CCCc1cc2c(N[C@H]3CC[C@H](N)CC3)c(-c3ccc(F)cn3)cnc2[nH]1` [Compound 114] was tested, and the Ki [1] was < 100 nM and the Ki [2] was 100 to 1000 nM.
With `CCCc1cc2c(N[C@H]3CC[C@H](N)CC3)c(-c3ccc(S(=O)(=O)N4CCOCC4)cn3)cnc2[nH]1` [Compound 115] the Ki [1] was < 100 nM and the Ki [2] was < 100 nM.
In the case of `CCCc1cc2c(N[C@H]3CC[C@H](N)CC3)c(-c3cc(N)ncn3)cnc2[nH]1` [Compound 116], the Ki [1] is reported as < 100 nM and the Ki [2] is reported as 100 to 1000 nM.
For `CCCc1cc2c(N[C@H]3CC[C@H](N)CC3)c(-c3nccs3)cnc2[nH]1` [Compound 117], the Ki [1] was < 100 nM and the Ki [2] was 100 to 1000 nM.
`CCCc1cc2c(N[C@H]3CC[C@H](N)CC3)c(-c3ccnc(N4CCCC4)n3)cnc2[nH]1` [Compound 118, (1r,4r)-N1-(2-propyl-5-(2-(pyrrolidin-1-yl)pyrimidin-4-yl)-1H-pyrrolo[2,3-b]pyridine-4-yl)cyclohexane-1,4-diamine hydrochloride] was tested, and the Ki [1] was < 100 nM and the Ki [2] was 100 to 1000 nM.
In the case of `CCc1cc2c(N[C@H]3CC[C@H](N)CC3)c(C(=O)NCc3ccc(-n4ccnc4)cc3)cnc2[nH]1` [Compound 119, N-(4-(1H-imidazol-1-yl)benzyl)-4-(((1r,4r)-4-aminocyclohexyl)amino)-2-ethyl-1H-pyrrolo[2,3-b]pyridine-5-carboxamide], the Ki [1] is reported as < 100 nM and the Ki [2] is reported as 100 to 1000 nM.
`CCCc1cc2c(N[C@H]3CC[C@H](N)CC3)c(-c3ccc(N)cn3)cnc2[nH]1` [Compound 120] was tested, and the Ki [1] was < 100 nM and the Ki [2] was 1000 to 10000 nM.
In the case of `CCCc1cc2c(N[C@H]3CC[C@H](N)CC3)c(C(=O)NCc3ccc(-n4ccnc4)cc3)cnc2[nH]1` [Compound 121], the Ki [1] is reported as < 100 nM and the Ki [2] is reported as 100 to 1000 nM.
For `CCCc1cc2c(N[C@H]3CC[C@H](N)CC3)c(-c3cc(OC)ncn3)cnc2[nH]1` [Compound 122], the Ki [1] was < 100 nM and the Ki [2] was 100 to 1000 nM.
For `CCCc1cc2c(N[C@H]3CC[C@H](N)CC3)c(-c3ccnc(N)n3)cnc2[nH]1` [Compound 123], the Ki [1] was < 100 nM and the Ki [2] was < 100 nM.
A Ki [1] of 100 to 1000 nM and a Ki [2] of 100 to 1000 nM were found for `CCCc1cc2c(N[C@H]3CC[C@H](N)CC3)c(C(=O)NC3CCOCC3)cnc2[nH]1` [Compound 124] in this work.
`CCCc1cc2c(N[C@H]3CC[C@H](O)CC3)c(-c3ccc(CN4CCCC4)cn3)cnc2[nH]1` [Compound 125] was tested, and the Ki [1] was < 100 nM and the Ki [2] was 100 to 1000 nM.
In the case of `N[C@H]1CC[C@H](Nc2c(C(=O)NCc3ccc(-n4ccnc4)cc3)cnc3[nH]c(C4CCCC4)cc23)CC1` [Compound 126], the Ki [1] is reported as < 100 nM and the Ki [2] is reported as 100 to 1000 nM.
In the case of `CCCc1cc2c(N[C@H]3CC[C@H](N)CC3)c(-c3ccc(C)nn3)cnc2[nH]1` [Compound 127], the Ki [1] is reported as < 100 nM and the Ki [2] is reported as 100 to 1000 nM.
